# In ChEMBL document CHEMBL3639120, “Pyridone and aza-pyridone compounds and methods of use” (2013):
# pIC50: −log10 of the molar value.
# Molecular target: Tyrosine-protein kinase BTK (Homo sapiens, UniProt Q06187)
# Assay: Biochemical Assay: A generalized procedure for a standard biochemical Btk Kinase Assay that can be used to test Formula I compounds. Alternatively, the Lanthascreen assay can be used to evaluate Btk activity through quantification of its phosphorylated peptide product. The FRET (Fluorescence Resonance Energy Transfer) that occurs between the fluorescein on the peptide product and the terbium on …
# Sequence of Tyrosine-protein kinase BTK (Q06187 whole entry): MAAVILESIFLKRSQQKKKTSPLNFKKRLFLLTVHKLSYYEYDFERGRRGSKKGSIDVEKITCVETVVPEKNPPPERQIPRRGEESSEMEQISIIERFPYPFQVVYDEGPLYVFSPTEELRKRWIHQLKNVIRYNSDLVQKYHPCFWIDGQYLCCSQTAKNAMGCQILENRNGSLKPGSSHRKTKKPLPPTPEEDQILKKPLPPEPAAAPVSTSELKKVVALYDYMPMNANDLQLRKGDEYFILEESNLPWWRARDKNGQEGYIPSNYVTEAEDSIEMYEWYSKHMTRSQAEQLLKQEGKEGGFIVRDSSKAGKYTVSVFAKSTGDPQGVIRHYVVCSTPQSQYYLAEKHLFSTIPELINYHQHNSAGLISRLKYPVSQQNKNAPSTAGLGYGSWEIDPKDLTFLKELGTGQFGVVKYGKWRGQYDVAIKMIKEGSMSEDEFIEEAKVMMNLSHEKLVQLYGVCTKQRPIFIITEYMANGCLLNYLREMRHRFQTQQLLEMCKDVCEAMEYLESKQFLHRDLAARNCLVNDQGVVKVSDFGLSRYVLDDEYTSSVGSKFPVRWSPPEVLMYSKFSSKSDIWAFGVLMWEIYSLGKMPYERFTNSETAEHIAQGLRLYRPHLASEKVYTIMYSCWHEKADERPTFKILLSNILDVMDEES
compound,measurement,value
Cn1cc(-c2cccc(N3CCn4c(cc5c4CC(C)(C)C5)C3=O)c2CO)cc(Nc2ccc(N3CCN(C4COC4)CC3)cn2)c1=O,pIC50,8.28
